Reference: ChEMBL document CHEMBL3865816, “Design, synthesis and biological evaluation of novel azaspiro analogs of linezolid as antibacterial and antitubercular agents” (Eur J Med Chem, 2016)
≈ marks a conversion by molar mass, not a printed value.

Assays:
Assay type in all cases: functional
[1] = test system: Mycobacterium tuberculosis variant bovis; experiment: Antitubercular activity against active stage Mycobacterium bovis BCG ATCC 35734 measured after 8 days by nitrate reductase assay; conditions: ATCC 35734, 192 h
[2] = test system: Mycobacterium tuberculosis variant bovis; experiment: Antitubercular activity against dormant stage Mycobacterium bovis BCG ATCC 35734 measured after 12 days by nitrate reductase assay; conditions: ATCC 35734, 288 h
[3] = test system: Mycobacterium tuberculosis variant bovis; experiment: Antitubercular activity against dormant stage Mycobacterium bovis BCG ATCC 35734 at 30 ug/ml measured after 12 days by nitrate reductase assay; conditions: ATCC 35734, 288 h
[4] = test system: Mycobacterium tuberculosis variant bovis; experiment: Antitubercular activity against dormant stage Mycobacterium bovis BCG ATCC 35734 at 10 ug/ml measured after 12 days by nitrate reductase assay; conditions: ATCC 35734, 288 h
[5] = test system: Mycobacterium tuberculosis variant bovis; experiment: Antitubercular activity against dormant stage Mycobacterium bovis BCG ATCC 35734 at 3 ug/ml measured after 12 days by nitrate reductase assay; conditions: ATCC 35734, 288 h

Row | Compound | IC50 [1] | MIC [1] | IC50 [2] | MIC [2] | inhibition at 30 µg/mL [3] | inhibition at 10 µg/mL [4] | inhibition at 3 µg/mL [5]
1 | NC[C@H]1CN(c2ccc(N3CC4(COC4)C3)c(F)c2)C(=O)O1 | 15.7 µg/mL (≈ 51.2 µM) | 29.5 µg/mL (≈ 96 µM) | 17.3 µg/mL (≈ 56.4 µM) | 24.4 µg/mL (≈ 79.2 µM) | 89.4% | 52% | -0.29%
2 | O=C(NC[C@H]1CN(c2ccc(N3CC4(COC4)C3)c(F)c2)C(=O)O1)c1ccno1 | 4.11 µg/mL (≈ 10.2 µM) | 9.82 µg/mL (≈ 24.4 µM) | 4.83 µg/mL (≈ 12 µM) | 10.1 µg/mL (≈ 25.2 µM) | 89% | 86.1% | 66.9%
3 | O=C1OC2(CCNC2)CN1c1ccc(N2CCOCC2)c(F)c1 (centres undefined) |  |  | > 100 µg/mL | > 100 µg/mL | -7.3% | -16.8% | -3.11%
4 | O=C1O[C@@H](CNS(=O)(=O)c2cc([N+](=O)[O-])ccc2Cl)CN1c1ccc(N2CC3(COC3)C2)c(F)c1 |  |  | > 100 µg/mL | > 100 µg/mL | 15% | 11.6% | 11.1%
5 | CC1(C)[C@@]2(C)CC[C@]1(C(=O)NC[C@H]1CN(c3ccc(N4CC5(COC5)C4)c(F)c3)C(=O)O1)OC2=O |  |  | > 100 µg/mL | > 100 µg/mL | 8.27% | 3.86% | -35.3%
6 | CC(=O)NC[C@H]1CN(c2ccc(C3=C[C@H]4CC[C@@H](C3)N4C(=O)OC(C)(C)C)c(F)c2)C(=O)O1 | 4.35 µg/mL (≈ 9.47 µM) | 31.2 µg/mL (≈ 67.8 µM) | 5.82 µg/mL (≈ 12.7 µM) | 23.1 µg/mL (≈ 50.4 µM) | 96.3% | 89.3% | 57.9%
7 | CC(=O)NC[C@H]1CN(c2ccc(N3CC4(COC4)C3)c(F)c2)C(=O)O1 | 0.79 µg/mL (≈ 2.26 µM) | 1.83 µg/mL (≈ 5.24 µM) | 0.81 µg/mL (≈ 2.32 µM) | 1.67 µg/mL (≈ 4.78 µM) | 95.9% | 100% | 99.1%
8 | O=C1O[C@@H](CNC(=S)Nc2ccccc2F)CN1c1ccc(N2CC3(COC3)C2)c(F)c1 | 13.1 µg/mL (≈ 28.4 µM) | 44.5 µg/mL (≈ 96.5 µM) | 17.7 µg/mL (≈ 38.4 µM) | 61.2 µg/mL (≈ 133 µM) | 94.7% | 92.9% | 42.1%
9 | O=C1O[C@@H](CNS(=O)(=O)c2ccc(Cl)s2)CN1c1ccc(N2CC3(COC3)C2)c(F)c1 |  |  | > 100 µg/mL | > 100 µg/mL | 91.7% | 83.5% | 34.8%
10 | O=C(NC[C@H]1CN(c2ccc(N3CC4(COC4)C3)c(F)c2)C(=O)O1)c1cccnc1 |  |  | > 100 µg/mL | > 100 µg/mL | 102% | 101% | 76.2%
11 | CC(C)(C)NC(=S)NC[C@H]1CN(c2ccc(N3CC4(COC4)C3)c(F)c2)C(=O)O1 |  |  | > 100 µg/mL | > 100 µg/mL | 33.6% | -3.89% | -9.84%
12 | O=C1O[C@@H](CNC(=S)Nc2ccc(Cl)cc2)CN1c1ccc(N2CC3(COC3)C2)c(F)c1 |  |  | > 100 µg/mL | > 100 µg/mL | -26.1% | -10.1% | -1.89%
13 | CC(=O)NC[C@H]1CN(c2ccc(N3CCOCC3)c(F)c2)C(=O)O1 [LINEZOLID] | 0.029 µg/mL (≈ 0.086 µM) | 0.42 µg/mL (≈ 1.24 µM) | 0.31 µg/mL (≈ 0.919 µM) | 0.43 µg/mL (≈ 1.27 µM) | 101% | 101% | 101%
14 | O=C(NC[C@H]1CN(c2ccc(N3CC4(COC4)C3)c(F)c2)C(=O)O1)Nc1ccc(Cl)cc1 |  |  | > 100 µg/mL | > 100 µg/mL | 28.6% | -3.58% | -5.78%
15 | CC(=O)N1CCC2(C1)CN(c1ccc(N3CCOCC3)c(F)c1)C(=O)O2 (centres undefined) |  |  | > 100 µg/mL | > 100 µg/mL | 8.79% | -3.02% | -2.09%
16 | O=C1O[C@@H](CNC(=S)Nc2ccc([N+](=O)[O-])cc2)CN1c1ccc(N2CC3(COC3)C2)c(F)c1 |  |  | > 100 µg/mL | > 100 µg/mL | -6.89% | -15.8% | 39.9%
17 | O=C1O[C@@H](CNC(=S)Nc2cccc(C(F)(F)F)c2)CN1c1ccc(N2CC3(COC3)C2)c(F)c1 |  |  | > 100 µg/mL | > 100 µg/mL | 94.8% | 83.9% | 29.6%
18 | COCC(=O)NC[C@H]1CN(c2ccc(N3CC4(COC4)C3)c(F)c2)C(=O)O1 |  |  | > 100 µg/mL | > 100 µg/mL | 98.6% | 97.2% | 74.5%
19 | O=C1O[C@@H](CNS(=O)(=O)c2cc(Cl)cc(Cl)c2)CN1c1ccc(N2CC3(COC3)C2)c(F)c1 |  |  | > 100 µg/mL | > 100 µg/mL | 3.87% | -2.28% | 25.9%
20 | OC1(CNc2ccc(N3CCOCC3)c(F)c2)CCN(Cc2ccccc2)C1 (centres undefined) |  |  | > 100 µg/mL | > 100 µg/mL | -1.83% | -6.66% | -6.7%
21 | CC(C)NC(=S)NC[C@H]1CN(c2ccc(N3CC4(COC4)C3)c(F)c2)C(=O)O1 |  |  | > 100 µg/mL | > 100 µg/mL | 94.4% | 74.6% | 21.9%
22 | O=C1OC2(CCN(Cc3ccccc3)C2)CN1c1ccc(N2CCOCC2)c(F)c1 (centres undefined) |  |  | > 100 µg/mL | > 100 µg/mL | -11.2% | -9.32% | -11.8%
23 | COc1ccc(NC(=S)NC[C@H]2CN(c3ccc(N4CC5(COC5)C4)c(F)c3)C(=O)O2)cc1 |  |  | > 100 µg/mL | > 100 µg/mL | 73.2% | 63% | 18.9%
24 | O=C1O[C@@H](CNC(=O)C23CC4CC(CC(C4)C2)C3)CN1c1ccc(N2CC3(COC3)C2)c(F)c1 |  |  | > 100 µg/mL | > 100 µg/mL | 62.6% | 44.1% | 11.8%
25 | O=C(NC[C@H]1CN(c2ccc(N3CC4(COC4)C3)c(F)c2)C(=O)O1)c1ccc(C(F)(F)F)cc1 |  |  | > 100 µg/mL | > 100 µg/mL | 73.1% | 8.62% | 65%
26 | CC(=O)OCC(=O)NC[C@H]1CN(c2ccc(N3CC4(COC4)C3)c(F)c2)C(=O)O1 | 3.35 µg/mL (≈ 8.22 µM) | 6.32 µg/mL (≈ 15.5 µM) | 3.05 µg/mL (≈ 7.49 µM) | 5.77 µg/mL (≈ 14.2 µM) | 99.4% | 99.6% | 99.2%
27 | O=C1O[C@@H](CNS(=O)(=O)c2cccc(C(F)(F)F)c2)CN1c1ccc(N2CC3(COC3)C2)c(F)c1 |  |  | > 100 µg/mL | > 100 µg/mL | -5.29% | -6.57% | -2.23%
28 | N#Cc1ccc(NC(=S)NC[C@H]2CN(c3ccc(N4CC5(COC5)C4)c(F)c3)C(=O)O2)cc1 |  |  | > 100 µg/mL | > 100 µg/mL | 88.1% | 97.2% | 97.4%
